Regarding `CN(C)[C@H]1CC[C@@H](C(=O)N2CCC(c3[nH]nc4c3C(=O)c3c(NC(=O)NN5CCOCC5)cccc3-4)CC2)CC1`, the melting point (usually the temperature, or range, at which the solid turns liquid) is 123 to 125 °C.

For `O=C(OCc1ccccc1)n1ccc2c(O)cccc21`, the melting point is 118 to 120 °C.

Consider `C=CCNC(=O)N1CC(Oc2ccc(C(F)(F)F)cc2Cl)C1`, for which the melting point was 102 to 104 °C.

For `CC(C)(O)c1nnc2ccc(-c3c(-c4ccc(F)cc4F)nc4n3CCC4)nn12`, the melting point was 222 to 223 °C.

With `CCOC(=O)NCC#N`, the melting point was 49 °C.

For `CCC1(CCCN=[N+]=[N-])C(=O)NC(=O)NC1=O`, the melting point was 182 to 184 °C.

On to `O=C1c2ccccc2C(=O)N1Cc1cn2ccccc2n1`, for which the melting point lay in the range of 230 to 232 °C.

In the case of `COc1ccc(CCN2CCC(C(O)(c3ccccc3)c3nc4ccccc4s3)CC2)cc1` (stereo not given), the melting point fell in the range of 67 to 70 °C.

Take `CCNC(=O)c1cc(Cl)ccc1[Si](C)(C)C`: the melting point lay in the range of 104 to 105 °C.

Take `Cc1cccc(S(=O)(=O)Nc2onc(C)c2Br)c1`: the melting point is 138 to 140 °C.

Turning to `[O-][N+]1=C(c2ccccc2F)c2cc(Cl)ccc2-c2ncncc2C1`, the melting point lay in the range of 185 to 186 °C.

Take `CC(C)(C)CC(C)(C)c1ccc(Nc2ccc(Cc3ccc(Nc4ccc(C(C)(C)CC(C)(C)C)cc4)c4ccccc34)c3ccccc23)cc1`: the melting point is 80 °C.

For the compound `O=CCCC[C@@H](C(=O)O)N1C(=O)c2ccccc2C1=O`, the melting point fell in the range of 219 to 222 °C.

`C=C(c1ccc(Cl)cc1)c1ccc(NC(=O)OC(C)(C)C)c(C)c1` had a melting point of 102 to 104 °C.

`CS(=O)(=O)Oc1ccc2c(c1)C1(CCCC1)CO2`: the melting point fell in the range of 75 to 77 °C.

For `O=C1NCC(c2ccc(F)cc2)N1CCCCS` (stereo not given), the melting point is 102 to 104 °C.

`CNC(=C[N+](=O)[O-])NCCCCc1nc[nH]c1Br` came in with a melting point of 145 to 148 °C.

Regarding `O=C(CO)Nc1nc(-c2ccc(Br)cc2)cs1`, the melting point was in the range of 222 to 224 °C.

As for `CCC(C)n1c(=O)nc(SC)[nH]c1=O` (stereo not given), the melting point lay in the range of 134 to 136 °C.

As for `C#CCNC(=O)c1nn(-c2c(Cl)cc(C(F)(F)F)cc2Cl)c(N)c1S(=O)C(F)(F)F` (stereo not given), the melting point was determined as 207 °C.

`COc1cc(C(=O)N2CCC(CCN3CCC(C(=O)c4nc5ccccc5n4Cc4ccc(F)cc4)CC3)(c3ccc(Cl)c(Cl)c3)C2)cc(OC)c1OC` (stereo not given): the melting point fell in the range of 87 to 90 °C.

As to `CCOC1(C)OCC(O)O1` (stereo not given), the melting point lay in the range of 86 to 87 °C.

With `Cc1cc(C(=O)Nc2cccc(Sc3ccc4nc(NC(=O)C5CC5)cn4n3)c2)n(C)n1`, the melting point turned out to be 251 °C.

Regarding `C=CCCC(F)c1cccc(C2(c3ccc(OC(F)F)cc3)N=C(N)N(C)C2=O)c1` (stereo not given), the melting point was 50 to 55 °C.

Take `Cc1cc(C)c(-n2ccc3c(N)n[nH]c(=O)c32)c(C)c1`: the melting point was 290 to 292 °C.

Take `COc1cccc(CC(=O)O)c1OCCCc1cc(OC(C)C)nn1Cc1ccc(C(F)(F)F)cc1Cl`: the melting point lay in the range of 98 to 99 °C.

`COc1ccccc1N1CCN(CC(O)COc2ccc(CC(C)=O)cc2)CC1` (stereo not given) returned a melting point of 42 to 43 °C.

Consider `COc1ccc(O)c2c(C)c(C)[nH]c12`, for which the melting point turned out to be 164 °C.

The compound `CC(=O)N[C@@H](CC(C)C)C(=O)N[C@@H](C(C)C)[C@@H](O)c1c(-c2ccccc2)c1=O` showed a melting point of 94 to 105 °C.

Compound `CC1=C(c2ccncc2)SC(C)C(=O)N1` (stereo not given) came in with a melting point of 144 to 146 °C.

The compound `CC(C)(C)c1ncc2cc(Cl)nc(Cl)n12` showed a melting point of 109 to 110 °C.

In the case of `COc1ccc(C(=O)C=CN(C)C)cc1OC`, the melting point fell in the range of 124 to 125 °C.

Regarding `COC(=O)C=C1CC(=O)N(c2ccccc2)c2cc(Cl)ccc2N1`, the melting point is 199 to 201 °C.

In turn, `CN(CCc1ccncc1)C(=O)CCSc1cc(C(C)(C)C)c(O)c(C(C)(C)C)c1` yielded a melting point of 129 to 132 °C.

In the case of `CC(Oc1ccc2nc(NC(=O)NCCN3CCN(C(=O)OC(C)(C)C)CC3)sc2c1)c1c(Cl)ccc(F)c1Cl` (stereo not given), the melting point stood at 87 °C.

`CCOC(=O)CCCOc1ccc(C2=NNC(=O)CC2)cc1Cl` showed a melting point of 109 to 110 °C.

Compound `CC(C)c1cccc(C(C)C)c1N=c1cccc(-c2ccccc2)[nH]1` had a melting point of 142 to 144 °C.

As for `COC(=O)CCCc1cc2nc(Cl)ccc2n1S(=O)(=O)c1ccc(C)cc1Cl`, the melting point was 88 to 89 °C.

As for `N#CC1CC(C#N)(c2ccc(OC(F)F)c(OCC3CC3)c2)CCC1=O` (stereo not given), the melting point is 142 to 143 °C.

For the compound `COc1ccc(C(O)C(C)=CC(=O)O)c(C(C)C)c1OC` (stereo not given), the melting point lay within 154 to 155 °C.

Consider `CNC(=N)NC(=O)c1nc(Cl)c(NC2CCCC2)nc1N`, for which the melting point lay within 184 to 187 °C.

With `Cc1cc(/C=C/CC(C)N(C)C(=O)OC(C)(C)C)cnc1N` (stereo not given), the melting point lay in the range of 78 to 81 °C.

As for `C=CCOC(=O)c1ccc(OC(=O)c2ccc(O)c(C34CC5CC(CC(C5)C3)C4)c2)cc1`, the melting point is 175 to 177 °C.

For the compound `CCCN(CCC)C1Cc2c(OC)ccc3ncn(c23)C1` (stereo not given), the melting point lay within 46 to 49 °C.

`Cc1ccc(-n2nc3c4cc(/C=C/C(=O)OCc5ccccc5)ccc4[nH]c(=O)n3c2=O)cc1` registered a melting point of 242 °C.

`CCCCCCC#Cc1csc(/C=C/C(=O)O)c1` gave a melting point of 81 °C.

`O=C=Nc1c(Br)cccc1Br` gave a melting point of 68 to 70 °C.

On to `O=C(c1cocc1C(=O)N1CCCCC1)N1CCCCC1`, for which the melting point was in the range of 180 to 183 °C.

For the compound `CC[C@H](C)C(=O)O[C@H]1C[C@@H](C)C=C2C=C[C@H](C)[C@H](CCC(=O)C[C@@H](O)CC(=O)O)[C@H]21`, the melting point lay in the range of 102 to 103 °C.

In turn, `FCc1cccc(C#CCCn2nc3cc(F)c(F)cc3n2)n1` had a melting point of 104 to 105 °C.

Turning to `CCc1cnc(N2CCC(c3ccc4oc(-c5ccc(S(C)(=O)=O)cc5F)nc4c3)CC2)nc1`, the melting point was 190 to 194 °C.

In the case of `C(=Nc1c2c(nc3ccccc13)CCCC2)c1cccc2ccccc12`, the melting point lay in the range of 229 to 231 °C.

`Cc1ccc(C(=O)Nc2ccc(CN3CCCCC3)c(C(F)(F)F)c2)cc1Br` had a melting point of 151 to 153 °C.

As to `FC(F)(F)c1ccc(Oc2ccc3nonc3c2)c(Cl)c1`, the melting point was in the range of 65 to 66 °C.

In the case of `Cc1ccc2c(c1)c(N1CCNCC1)c(C#N)c(=O)n2C`, the melting point was 274 °C.

`CC(C(=O)O)c1cc(Cl)c([N+](=O)[O-])cc1Cl` (stereo not given) came in with a melting point of 143 °C.

For the compound `CN1CCC23CC(=O)CCC2(O)C1Cc1cccc(O)c13` (stereo not given), the melting point was 233 to 236 °C.

For the compound `O=C(NNS(=O)(=O)c1ccccc1)c1ccc2[nH]ccc2c1`, the melting point fell in the range of 209 to 211 °C.

For `CC(C(=O)O)c1ccc(C2=CCCCC2)cc1` (stereo not given), the melting point lay in the range of 101 to 102 °C.

In the case of `Cc1ccccc1Sc1cccc(CC(=O)O)c1O`, the melting point is 96 to 97 °C.

Regarding `CCN(CC)CC#CCCC(=O)C(O)(c1ccccc1)C1CCCC1` (stereo not given), the melting point was 128 to 129 °C.

Compound `CC(C)(c1ccccc1)N1CC(O)=C(c2ccccc2)C1=O` gave a melting point of 206 to 208 °C.

In turn, `CC1(C)Oc2ccc(C#N)cc2[C@@H](Nc2cc(Cl)ncn2)[C@@H]1O` (relative stereo) showed a melting point of 204 to 208 °C.

`CC(=O)N1C(=O)c2ccccc2N(C(C)=O)C1C(Cl)(Cl)Cl` (stereo not given) registered a melting point of 152 to 154 °C.

For the compound `CCc1cn(C(CC)C(=O)N(C)C)nc1-c1ccccc1` (stereo not given), the melting point lay in the range of 77.5 to 79 °C.

For the compound `Cc1nc(Cn2c(=O)sc3cc(F)c(N=C=O)cc32)no1`, the melting point was 125 to 127 °C.

The compound `Cc1nc[nH]c1CN1CCC(Nc2nc3ccccc3n2Cc2ccco2)CC1` returned a melting point of 242 °C.

Turning to `COC(=O)CS(=O)(=O)Cc1cnc(OC)c([N+](=O)[O-])c1`, the melting point is 137 to 140 °C.

In turn, `CC(Cl)(Cl)C(NC(=O)c1ccc(Cl)cc1)NC(=NC#N)Nc1ccccc1F` (stereo not given) showed a melting point of 216 to 217 °C.

In turn, `Cc1cccc2c(-c3ccc(Cl)cc3)onc12` showed a melting point of 134 to 136 °C.

In the case of `CCOC(=O)Nc1ccn2cc(C)nc2c1I`, the melting point was found to be 148 °C.

In turn, `CCn1c(C(c2ccccc2)c2ccccc2)nc(-c2ccncc2)c1-c1ccc(Cl)cc1` came in with a melting point of 199 to 200 °C.

`O=C(O)CS(=O)c1cc2onc(-c3ccccc3F)c2cc1Br` (stereo not given) came in with a melting point of 173 to 174 °C.

The compound `COc1ccc2c(c1)c(Cc1cc(=O)n(-c3cc(C)cc(C)c3)[nH]1)c(C)n2C(=O)c1ccc(Cl)cc1` displayed a melting point of 77.5 to 79 °C.

Compound `O=C(O)C=CC=CCS(=O)(=O)c1ccccc1` showed a melting point of 148 to 150 °C.

`O=Cc1cnn(Cc2ccccc2)c1-c1ccccc1`: the melting point lay within 99 to 100 °C.

On to `O=C(O)C1CCN(CC2CN(CC3CCN(c4ccncc4)CC3)C(=O)O2)CC1` (stereo not given), for which the melting point was in the range of 94 to 96 °C.

Compound `CN1CCC(c2n[nH]c3ccc(F)cc23)CC1` gave a melting point of 202 to 204 °C.

Consider `CCOC(=O)C1=C(c2ccc(-n3c(C)nc4cnccc43)cc2)NC(C)=C(C(=O)OCCC#N)C1c1ccccc1Cl` (stereo not given), for which the melting point was in the range of 177 to 179 °C.

The compound `COc1cccc(NC(=O)c2ccc([N+](=O)[O-])cc2)c1` displayed a melting point of 189 to 191 °C.

Regarding `COC(=O)c1cc(C#N)c2cc(Cc3ccc(F)cc3)cnc2c1O`, the melting point was in the range of 178 to 179 °C.

The compound `O=C1OC2(CCN(C(=O)Nc3cnc(-c4cccc(O)c4)cn3)CC2)c2ccccc21` yielded a melting point of 257 to 259 °C.

Compound `O=c1c2c(O)cc(OCC3CS3)cc2oc2ccc3ccccc3c12` (stereo not given) gave a melting point of 167 to 168 °C.

In turn, `Cc1c(-c2ccccc2)c(N2CC[C@H](N(C)C)C2)c2oc(-c3cnn(C)c3)nc2c1C#N` showed a melting point of 214 to 222 °C.

As for `Cc1cc2nc3ccc(C#N)cn3c(=O)c2s1`, the melting point lay in the range of 258 to 259 °C.

As for `O=C(O)c1cc(OCc2ccsc2)c(-c2ccccc2)c([N+](=O)[O-])c1`, the melting point is 184 to 186 °C.

With `NC(=S)c1cccc2c1CCCC2=O`, the melting point was 200 to 205 °C.

As for `CCCCCCCCCCC(O)C1CCC(C2CCC(C(O)CCCCCCCCCCC3CC(CC(C)=O)C(=O)O3)O2)O1` (stereo not given), the melting point lay in the range of 90.5 to 90.7 °C.

On to `CCCCSc1ccc(C2CC(=O)C(C(=O)CC)=C(O)C2)cc1` (stereo not given), for which the melting point is 79 °C.

For the compound `N#CC1C(c2ccccc2)N1C(=O)NC(=O)CCl` (stereo not given), the melting point was 153 to 158 °C.

These data come from a melting point compilation (Tetko et al.; mined from patent text by program, amines drawn as free bases though some values may be those of a salt).
